The test addresses mouse UAE (Mus musculus (Mouse), UniProt Q02053). In words: Ubiquitin Activating Enzyme (UAE) HTRF Assay. The note with it: read-out: % inhibition @0.111 μM.

The term inhibition denotes the change of the read-out against control, counted positive when it falls.

Sequence of mouse UAE (Q02053 whole entry): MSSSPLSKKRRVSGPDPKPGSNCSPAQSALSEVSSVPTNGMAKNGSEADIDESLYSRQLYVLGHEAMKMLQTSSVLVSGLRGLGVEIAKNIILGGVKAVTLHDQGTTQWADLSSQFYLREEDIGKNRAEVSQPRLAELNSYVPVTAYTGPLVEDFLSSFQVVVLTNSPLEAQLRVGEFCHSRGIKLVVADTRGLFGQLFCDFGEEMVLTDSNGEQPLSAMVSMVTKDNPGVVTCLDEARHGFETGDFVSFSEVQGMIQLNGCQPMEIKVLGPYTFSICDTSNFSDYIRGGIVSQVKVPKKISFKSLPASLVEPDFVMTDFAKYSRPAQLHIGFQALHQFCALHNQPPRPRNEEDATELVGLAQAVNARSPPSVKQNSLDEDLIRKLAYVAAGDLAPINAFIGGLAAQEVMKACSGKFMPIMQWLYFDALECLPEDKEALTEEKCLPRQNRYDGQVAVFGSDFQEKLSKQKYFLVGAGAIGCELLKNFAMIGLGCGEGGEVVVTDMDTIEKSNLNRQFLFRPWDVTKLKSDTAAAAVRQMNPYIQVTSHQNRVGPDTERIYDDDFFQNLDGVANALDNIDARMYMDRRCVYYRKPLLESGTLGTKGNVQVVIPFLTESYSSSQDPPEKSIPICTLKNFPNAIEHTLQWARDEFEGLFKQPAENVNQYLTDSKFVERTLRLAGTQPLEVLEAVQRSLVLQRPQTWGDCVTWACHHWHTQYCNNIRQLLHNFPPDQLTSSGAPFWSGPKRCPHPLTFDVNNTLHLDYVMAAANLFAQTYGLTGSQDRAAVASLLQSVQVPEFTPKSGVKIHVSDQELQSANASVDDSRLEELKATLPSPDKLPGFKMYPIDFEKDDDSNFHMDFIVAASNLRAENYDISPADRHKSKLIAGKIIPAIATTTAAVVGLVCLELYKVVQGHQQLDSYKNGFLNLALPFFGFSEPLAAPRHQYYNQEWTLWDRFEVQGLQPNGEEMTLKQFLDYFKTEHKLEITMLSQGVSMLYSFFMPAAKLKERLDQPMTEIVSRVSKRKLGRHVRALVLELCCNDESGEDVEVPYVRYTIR
Experimental: After incubation for 120 minutes, quantification of the FRET is performed on the Pherostar (BMG).
For compounds whose values are marked with an asterisk (*), mouse UAE was used. For all other compounds, human UAE was used.

Take `NS(=O)(=O)OC[C@H]1C[C@@H](Nc2cc(Cl)nc3cc(-c4ccccn4)nn23)[C@H](O)[C@@H]1O` (relative stereo) [Compound I-011, (rac)-((1R,2R,3S,4R)-4-(5-chloro-2-(pyridin-2-yl)pyrazolo[1,5-a]pyrimidin-7-ylamino)-2,3-dihydroxycyclopentyl)methyl rel-sulfamate]: the inhibition at 0.111 µM was found to be 49%.

As to `NS(=O)(=O)OC[C@H]1C[C@@H](Nc2ccnc3cc(-c4ccccn4)nn23)[C@H](O)[C@@H]1O` (relative stereo) [Compound I-012, (rac)-[(1R,2R,3S,4R)-2,3-dihydroxy-4-{[2-(pyridin-2-yl)pyrazolo[1,5-a]pyrimidin-7-yl]amino}cyclopentyl]methyl rel-sulfamate], the inhibition at 0.111 µM was 61%.

For `NS(=O)(=O)OC[C@H]1C[C@@H](Nc2ccnc3cc(-c4csc5cc(Cl)ccc45)nn23)[C@H](O)[C@@H]1O` (relative stereo) [Compound I-091, (rac)-((1R,2R,3S,4R)-4-(2-(6-chlorobenzo[b]thiophen-3-yl)pyrazolo[1,5-a]pyrimidin-7-ylamino)-2,3-dihydroxycyclopentyl)methyl rel-sulfamate], the inhibition at 0.111 µM was found to be 100%.
